Test results: PMC11493595, “Stretching the structural envelope of imatinib to reduce β-amyloid production by modulating both β- and γ-secretase cleavages of APP” (Frontiers in Chemistry, 2024)
Structures can show the parent of a compound that is named as a salt.

Columns and labels:
N2a695 cells = test: Screening of Aβ production in N2a695 cells (Aβ ELISA of cell supernatants); type: cell-based
Description: N2a695 were cultured in 1:1 OptiMem Reduced Serum Media (Life Technologies): Dulbecco’s Modified Eagle Medium ([+] 4.5 g/L D-glucose [+] L-Glutamine; [−] Sodium pyruvate (Life Technologies) supplemented with 5% fetal bovine serum, 0.4% Penstrep and 0.4% Geneticin and incubated at 37°C in 5% CO2. Antibodies were obtained from The Laboratory of Molecular and Cellular Neuroscience at The Rockefeller University. Human Aβ40 and Aβ42 ELISA plates (Life Technologies) and Plus MSD (Mesoscale Discovery) plates for Aβ Peptide (Aβ38, Aβ40 and Aβ42) Panel 1 (6E10) Kit (Catalog number K15200G) were obtained from Thermo Fisher, Life Technologies and Meso Scale Discovery.
N2a695 cells were used to screen all new compounds and in the follow-up studies with compounds found active in the preliminary screen. In a typical experiment, 6-well tissue culture plates (Corning) were seeded at 4.0 × 10^5–4.5 × 10^5 N2a695 cells/mL, 2 mL/well for overnight incubation. When cells were >95% confluent, media were exchanged with fresh media containing 10 µM solutions of compounds or DMSO carrier alone and cells were incubated at 37°C in 5% CO2 for 5 h. Culture media were collected and soluble Aβ concentrations in the media were determined by ELISA or MSD plates for human Aβ peptides as per manufacturer instructions. Signals for Aβ were measured using Perkin Elmer Envision and SQ120 MSD ELISA reader. Follow-up studies with N2a695 cells were performed similarly.
Specifically, we exposed N2a695 cells to increasing concentrations of each compound and measured the production of Aβ38, 40, and 42. […] Remarkably, this occurs for all Aβ peptides tested shorter than 40 amino acids (Figure 2C). Moreover, for some compounds that modulate γ-secretase activity most conspicuously at 5 μM, this effect vanishes at 10 μM, relative to controls (Figure 2B, C). […]

BACE1 = test system: BACE1; design: method as in Netzer et al., 2017; conditions: two in vitro BACE1 assays, concentrations up to 100 μM; ref Netzer et al., 2017; cited from earlier work
Abl1 kinase = target: T1, Abl1 kinase (Homo sapiens, UniProt P00519); test: In vitro kinase activity assay (split-luciferase, Luceome); type: biochemical; conditions: read-out: IC50, Abl kinase
T1 sequence (P00519 242-493 limits assumed): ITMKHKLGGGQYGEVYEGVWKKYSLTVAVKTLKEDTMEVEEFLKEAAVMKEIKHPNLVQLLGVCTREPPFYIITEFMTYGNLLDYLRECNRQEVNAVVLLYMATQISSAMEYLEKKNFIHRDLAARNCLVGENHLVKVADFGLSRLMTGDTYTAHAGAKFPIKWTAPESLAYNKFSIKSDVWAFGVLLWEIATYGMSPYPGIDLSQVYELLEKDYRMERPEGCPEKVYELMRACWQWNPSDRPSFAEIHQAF
Description: The assay was performed by Luceome Biotechnologies, LLC. Typically, 10 mM stock solutions of the compounds were diluted in DMSO to a concentration of 250 μM. Prior to initiating the assay, all test compounds were evaluated for false positive against split-luciferase ([Jester et al., 2010]). For kinase assays, each Cfluc-Kinase was translated along with Fos-Nfluc using a cell-free system (rabbit reticulocyte lysate) at 30°C for 90 min 24 μL aliquot of this lysate containing either 1 μL of DMSO (for no-inhibitor control) or compound solution in DMSO (10 μM final concentration) was incubated for 30 min at room temperature followed by 1 h in presence of a kinase specific probe. 80 μL of luciferin assay reagent was added to each solution and luminescence was immediately measured on a luminometer. The percent Inhibition was calculated using the following equation: % Inhibition = (ALUcontrol–ALUsamplex 100)/ALUcontrol.

[1] = test system: β- and γ-cleavages of APP; test: Aβ in N2a cells transiently transfected with APP-FL or APP99 (APP-βCTF): BACE vs γ-secretase cleavage; type: cell-based; conditions: N2a cells transiently transfected with APP695 (APP-FL) or APP C99, 5 h
Description: To determine effects of compounds on BACE1 vs. GS inhibition, we used N2a cells transiently transfected with full length APP (APP-FL) or with APP99 (APP-βCTF) as described previously ([Netzer et al., 2017]; [Sun et al., 2019]). After 48 h, media were removed and fresh media containing compound 1a and analogs were added. Following 5 h of incubation, cell supernatants were collected, and analyzed using MSD-ELISA for Aβ and sAPPα and western blot for sAPPβ.
We focused on IMTi-1 and its analogs 1d, 1f and 1p. […] To test whether these compounds lower Aβ levels by affecting the BACE and/or γ-secretase cleavages, we transfected wild-type (wt) cells with APP-FL and APP βCTF (C99), respectively, and incubated the cells with IMTi-1 (isomer) and analogs 1d, 1f and 1p. We used BACE inhibitor, MK8931, and γ-secretase inhibitor, DAPT, as controls and performed the experiments and processed the results as described previously ([Sun et al., 2019]).

Row | Structure (SMILES) | Activity in Aβ production assays (N2a695 cells; N2a695 cells) | Inhibition of BACE1 enzymatic activity (BACE1) | Aβ38 levels relative to controls (N2a695 cells; 5 μM, N2a695 cells, ELISA) | Reduction of Aβ40 levels compared with IMT (N2a695 cells; 10 µM, N2a695 cell supernatants, anti-Aβ40 ELISA) | IC50 (Abl1 kinase) | BACE and γ-secretase cleavage of APP, Aβ levels [1]
1 | Cc1ccc(NC(=O)c2ccc(CN3CCN(C)CC3)cc2)cc1Nc1nccc(-c2cccnc2)n1 [IMT, imatinib mesylate, reference compound] | active | does not inhibit BACE1 enzymatic activity | – | – | – | –
2 | Cc1ccccc1Nc1nccc(-c2cncc(NC(=O)c3ccc(CN4CCN(C)CC4)cc3)c2)n1 [IMTi-1] | active | – | boost levels of Aβ38 above controls | reduced Aβ40 levels more strongly than IMT | 1.17 µM | lower BACE and γ-secretase cleavage of APP
